This assay deals with HCV RdRp (NS5B) (UniProt P26663). In kind it is biochemical, hepatitis C virus.
Chain of HCV RdRp (NS5B) (P26663 whole entry, looked up): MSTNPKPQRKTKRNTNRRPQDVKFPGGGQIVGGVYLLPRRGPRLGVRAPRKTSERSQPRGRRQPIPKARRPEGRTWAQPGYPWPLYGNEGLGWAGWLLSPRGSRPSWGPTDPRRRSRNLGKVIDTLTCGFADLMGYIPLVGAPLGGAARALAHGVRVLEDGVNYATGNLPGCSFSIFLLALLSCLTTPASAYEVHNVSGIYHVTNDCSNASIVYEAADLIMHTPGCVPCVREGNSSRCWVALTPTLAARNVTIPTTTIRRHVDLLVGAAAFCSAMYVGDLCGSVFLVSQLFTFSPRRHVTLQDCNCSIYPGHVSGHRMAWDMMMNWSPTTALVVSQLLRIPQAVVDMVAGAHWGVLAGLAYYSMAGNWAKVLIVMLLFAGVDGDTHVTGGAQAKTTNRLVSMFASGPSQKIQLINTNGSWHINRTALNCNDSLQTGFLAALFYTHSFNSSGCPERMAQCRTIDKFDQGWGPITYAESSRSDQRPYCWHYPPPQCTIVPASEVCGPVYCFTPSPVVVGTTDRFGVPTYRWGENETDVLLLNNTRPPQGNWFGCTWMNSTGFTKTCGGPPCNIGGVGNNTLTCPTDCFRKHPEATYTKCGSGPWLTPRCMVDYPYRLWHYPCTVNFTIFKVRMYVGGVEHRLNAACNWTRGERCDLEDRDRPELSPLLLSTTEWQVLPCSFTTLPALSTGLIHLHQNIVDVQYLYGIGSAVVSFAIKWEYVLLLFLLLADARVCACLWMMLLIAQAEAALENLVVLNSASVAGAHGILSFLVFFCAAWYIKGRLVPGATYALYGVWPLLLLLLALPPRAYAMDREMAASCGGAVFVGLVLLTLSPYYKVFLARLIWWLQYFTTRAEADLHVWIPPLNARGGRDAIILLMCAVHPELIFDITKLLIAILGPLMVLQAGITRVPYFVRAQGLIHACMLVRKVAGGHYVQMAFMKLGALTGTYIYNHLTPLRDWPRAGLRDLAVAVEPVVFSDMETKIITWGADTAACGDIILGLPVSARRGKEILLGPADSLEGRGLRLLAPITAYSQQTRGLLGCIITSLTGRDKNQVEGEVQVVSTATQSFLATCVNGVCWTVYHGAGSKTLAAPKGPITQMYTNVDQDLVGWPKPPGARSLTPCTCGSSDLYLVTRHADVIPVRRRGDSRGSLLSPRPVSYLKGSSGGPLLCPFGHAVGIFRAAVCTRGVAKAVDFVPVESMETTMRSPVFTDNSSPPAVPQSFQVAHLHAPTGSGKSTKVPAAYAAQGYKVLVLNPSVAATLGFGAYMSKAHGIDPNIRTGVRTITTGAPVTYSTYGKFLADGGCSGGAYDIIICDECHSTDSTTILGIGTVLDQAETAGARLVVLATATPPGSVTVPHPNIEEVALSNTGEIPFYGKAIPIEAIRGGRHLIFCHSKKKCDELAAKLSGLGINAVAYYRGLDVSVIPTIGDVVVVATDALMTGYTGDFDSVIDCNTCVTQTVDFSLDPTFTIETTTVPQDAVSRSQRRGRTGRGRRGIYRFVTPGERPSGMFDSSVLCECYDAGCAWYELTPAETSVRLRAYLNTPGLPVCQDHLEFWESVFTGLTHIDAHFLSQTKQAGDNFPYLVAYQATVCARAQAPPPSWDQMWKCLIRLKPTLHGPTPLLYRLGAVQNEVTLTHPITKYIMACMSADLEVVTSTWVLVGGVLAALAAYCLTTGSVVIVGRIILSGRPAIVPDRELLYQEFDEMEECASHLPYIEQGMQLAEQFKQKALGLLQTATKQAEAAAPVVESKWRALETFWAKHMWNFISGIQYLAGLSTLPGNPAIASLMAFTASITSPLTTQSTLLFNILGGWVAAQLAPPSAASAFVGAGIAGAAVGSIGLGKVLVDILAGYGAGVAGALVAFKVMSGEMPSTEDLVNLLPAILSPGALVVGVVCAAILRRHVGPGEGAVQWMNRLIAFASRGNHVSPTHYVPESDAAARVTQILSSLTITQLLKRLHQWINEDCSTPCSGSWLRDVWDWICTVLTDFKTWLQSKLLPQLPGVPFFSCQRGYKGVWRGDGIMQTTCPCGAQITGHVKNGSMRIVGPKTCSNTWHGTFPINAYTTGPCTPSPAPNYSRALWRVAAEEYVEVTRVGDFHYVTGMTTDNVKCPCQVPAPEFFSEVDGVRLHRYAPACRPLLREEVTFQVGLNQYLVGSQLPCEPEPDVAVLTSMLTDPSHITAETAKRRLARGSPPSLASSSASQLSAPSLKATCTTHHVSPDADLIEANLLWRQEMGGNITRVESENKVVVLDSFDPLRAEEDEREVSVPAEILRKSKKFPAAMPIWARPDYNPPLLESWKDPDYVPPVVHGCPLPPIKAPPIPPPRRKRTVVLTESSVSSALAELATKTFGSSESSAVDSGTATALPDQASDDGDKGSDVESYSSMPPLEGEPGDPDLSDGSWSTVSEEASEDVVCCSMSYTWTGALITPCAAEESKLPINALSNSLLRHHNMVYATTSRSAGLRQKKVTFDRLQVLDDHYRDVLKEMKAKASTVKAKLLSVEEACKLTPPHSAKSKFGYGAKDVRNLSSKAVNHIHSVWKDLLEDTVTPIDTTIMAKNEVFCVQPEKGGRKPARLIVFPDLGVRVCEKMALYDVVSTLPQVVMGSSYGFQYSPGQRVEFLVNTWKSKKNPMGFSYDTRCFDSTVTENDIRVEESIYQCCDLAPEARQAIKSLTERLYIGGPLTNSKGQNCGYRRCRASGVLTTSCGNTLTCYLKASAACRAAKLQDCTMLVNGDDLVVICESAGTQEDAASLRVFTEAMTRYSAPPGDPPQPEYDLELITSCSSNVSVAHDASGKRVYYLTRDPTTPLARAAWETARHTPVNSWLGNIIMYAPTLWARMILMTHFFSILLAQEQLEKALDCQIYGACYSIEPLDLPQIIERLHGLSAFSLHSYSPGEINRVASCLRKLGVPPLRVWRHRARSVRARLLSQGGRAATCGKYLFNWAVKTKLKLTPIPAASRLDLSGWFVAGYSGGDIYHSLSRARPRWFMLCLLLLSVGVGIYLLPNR
As to `NCc1ccc(CNC(=O)[C@@H](NC(=O)OCC2c3ccccc3-c3ccccc32)c2ccccc2)cc1` [Compound 314, (S)-[(4-AMINOMETHYL-BENZYLCARBAMOYL)-PHENYL-METHYL]-CARBAMIC ACID 9H-FLUOREN-9-YLMETHYL ESTER], the IC50 is 10 to 50 µM.
Under `Cc1ccc(CNC(=O)NC(CCCCN)C(=O)Nc2ccc(C)cc2)cc1` [Compound 136, (S)-6-AMINO-2-[3-(4-METHYL-BENZYL)-UREIDO]-HEXANOIC ACID P-TOLYLAMIDE] stands more than 50 µM; under `Cc1ccc(NC(=O)[C@H](CCCCN)NS(=O)(=O)c2ccc(Cl)cc2Cl)cc1` [Compound 393, (S)-6-AMINO-2-(2,4-DICHLORO-BENZENESULFONYLAMINO)-HEXANOIC ACID P-TOLYLAMIDE], more than 50 µM; under `Cc1ccc(NC(=O)[C@H](CCCCN)NC(=O)Nc2ccc(OCc3c(F)cccc3F)cc2)cc1` [Compound 287, (S)-6-AMINO-2-{3-[4-(2,6-DIFLUORO-BENZYLOXY)-PHENYL]-UREIDO}-HEXANOIC ACID P-TOLYLAMIDE], 10 to 50 µM.
Consider `Cc1ccc(NC(=O)[C@H](CCCCN)NC(=O)Nc2cccc(Br)c2)cc1` [Compound 118, (S)-6-AMINO-2-[3-(3-BROMO-PHENYL)-UREIDO]-HEXANOIC ACID P-TOLYLAMIDE], for which the IC50 is more than 50 µM.
Under `N[C@@H](CCNC(=O)OCC1c2ccccc2-c2ccccc21)C(=O)Nc1ccc(CN(C(=O)c2ccco2)C2CCCCC2)cc1` [Compound 14, (S)-[3-AMINO-3-(4-{[CYCLOHEXYL-(FURAN-2-CARBONYL)-AMINO]-METHYL}-PHENYLCARBAMOYL)-PROPYL]-CARBAMIC ACID 9H-FLUOREN-9-YLMETHYL ESTER] stands 10 to 50 µM; under `Cc1ccc(NC(=O)[C@H](CCCCN)NC(=O)Nc2ccc3c(c2)OCCO3)cc1` [Compound 213, (S)-6-AMINO-2-[3-(2,3-DIHYDRO-BENZO[1,4]DIOXIN-6-YL)-UREIDO]-HEXANOIC ACID P-TOLYLAMIDE], more than 50 µM; under `CCN(CC)c1ccc(NC(=O)[C@H](CCCCN)NC(=O)OCC2c3ccccc3-c3ccccc32)cc1` [Compound 106, (S)-[5-AMINO-1-(4-DIETHYLAMINO-PHENYLCARBAMOYL)-PENTYL]-CARBAMIC ACID 9H-FLUOREN-9-YLMETHYL ESTER], more than 50 µM.
On to `Cc1ccc(NC(=O)CC2CN(C(=O)C(C)N)CCN2C(=O)OCC2c3ccccc3-c3ccccc32)cc1` (centres unmarked) [Compound 185, 4-(R-2-AMINO-PROPIONYL)-2-(P-TOLYLCARBAMOYL-METHYL)-PIPERAZINE-1-CARBOXYLIC ACID 9H-FLUOREN-9-YLMETHYL ESTER], for which the IC50 was more than 50 µM.
The molecule `Cc1ccc(NC(=O)C(CCCNC(=N)N(C)C)NC(=O)OCC2c3ccccc3-c3ccccc32)cc1` [Compound 111, (S)-[4-(3,3-DIMETHYL-GUANIDINO)-1-P-TOLYLCARBAMOYL-BUTYL]-CARBAMIC ACID 9H-FLUOREN-9-YLMETHYL ESTER] came in with an IC50 of more than 50 µM.
The molecule `Cc1ccc(N(C)C(=O)C(CCCCN)NC(=O)OCC2c3ccccc3-c3ccccc32)cc1` [Compound 92, (S)-[5-AMINO-1-(METHYL-P-TOLYL-CARBAMOYL)-PENTYL]-CARBAMIC ACID 9H-FLUOREN-9-YLMETHYL ESTER] showed a concentration for half-maximal inhibition (IC50) of more than 50 µM.
Under `NC(Cc1ccccc1)C(=O)Nc1ccc(CN(C(=O)c2ccco2)C2CCCCC2)cc1` (stereo in doubt) [Compound 11, (R)-FURAN-2-CARBOXYLIC ACID [4-(2-AMINO-3-PHENYL-PROPIONYLAMINO)-BENZYL]-CYCLOHEXYL-AMIDE] stands more than 50 µM; under `Cc1ccc(NC(=O)C(CCCCN)NC(=O)CNCc2cccc(C)c2)cc1` [Compound 339, (S)-6-AMINO-2-[2-(3-METHYL-BENZYLAMINO)-ACETYLAMINO]-HEXANOIC ACID P-TOLYLAMIDE], more than 50 µM.
Under `Cc1ccc(NC(=O)[C@H](CCCCN)NC(=O)CNCc2ccccc2)cc1` [Compound 337, (S)-6-AMINO-2-(2-BENZYLAMINO-ACETYLAMINO)-HEXANOIC ACID P-TOLYLAMIDE] stands more than 50 µM; under `NCCCC[C@@H](NC(=O)NCc1ccccc1)C(=O)Nc1ccc(C2CCCCC2)cc1` [Compound 141, (R)-6-AMINO-2-(3-BENZYL-UREIDO)-HEXANOIC ACID (4-CYCLOHEXYL-PHENYL)-AMIDE], less than 10 µM.
Under `Cc1ccc(NC(=O)[C@H](CCCCN)NC(=O)Nc2ccc(OCc3ccc(F)cc3F)cc2)cc1` [Compound 285, (S)-6-AMINO-2-{3-[4-(2,4-DIFLUORO-BENZYLOXY)-PHENYL]-UREIDO}-HEXANOIC ACID P-TOLYLAMIDE] stands 10 to 50 µM; under `Cc1ccc(NC(=O)[C@H](CCCCN)NC(=O)Nc2ccc(OCc3cccc(F)c3)cc2)cc1` [Compound 249, (S)-6-AMINO-2-{3-[4-(3-FLUORO-BENZYLOXY)-PHENYL]-UREIDO}-HEXANOIC ACID P-TOLYLAMIDE], 10 to 50 µM; under `COc1cc2ccccc2cc1C(=O)NC(CCCCN)C(=O)Nc1ccc(C)cc1` [Compound 65, (S)-3-METHOXY-NAPHTHALENE-2-CARBOXYLIC ACID (5-AMINO-1-P-TOLYLCARBAMOYL-PENTYL)-AMIDE], more than 50 µM.
The molecule `NCCCC[C@@H](NC(=O)OCC1c2ccccc2-c2ccccc21)C(=O)Nc1ccc(-c2ccccc2)cc1` [Compound 144, (R)-[5-AMINO-1-(BIPHENYL-4-YLCARBAMOYL)-PENTYL]-CARBAMIC ACID 9H-FLUOREN-9-YLMETHYL ESTER] gave an IC50 of less than 10 µM.
Under `Cc1ccc(NC(=O)C(CCCCN)NC(=O)NCCc2ccccc2)cc1` [Compound 134, (S)-6-AMINO-2-(3-PHENETHYL-UREIDO)-HEXANOIC ACID P-TOLYLAMIDE] stands more than 50 µM; under `Cc1ccc(NC(=O)C2CN(C(=O)CN)CCN2C(=O)Nc2ccc(OCc3ccccc3)cc2)cc1` (racemic) [Compound 308, (±)-4-(2-AMINO-ACETYL)-PIPERAZINE-1,2-DICARBOXYLIC ACID 1-[(4-BENZYLOXY-PHENYL)-AMIDE]2-P-TOLYLAMIDE], more than 50 µM; under `Cc1ccc(NC(=O)C(CCCCN)NC(=O)C(N)Cc2cccc3ccccc23)cc1` [Compound 60, (S,S)-6-AMINO-2-(2-AMINO-3-NAPHTHALEN-1-YL-PROPIONYLAMINO)-HEXANOIC ACID P-TOLYLAMIDE], more than 50 µM.
Under `Cc1ccc(NC(=O)[C@H](CCCCN)NC(=O)COc2ccc(F)cc2)cc1` [Compound 329, (S)-6-AMINO-2-[^2-(^4-FLUORO-PHENOXY)-ACETYLAMINO]-HEXANOIC ACID P-TOLYLAMIDE] stands more than 50 µM; under `Cc1ccc(NC(=O)[C@H](CCCCN)NC(=O)Nc2ccc(OCc3ccccc3)c(Cl)c2)cc1` [Compound 253, (S)-6-AMINO-2-[3-(4-BENZYLOXY-3-CHLORO-PHENYL)-UREIDO]-HEXANOIC ACID P-TOLYLAMIDE], 10 to 50 µM; under `NCCCC[C@H](NC(=O)NCc1ccc(Cl)c(Cl)c1)C(=O)Nc1ccc(CN(C(=O)c2ccco2)C2CCCCC2)cc1` [Compound 154, (S)-FURAN-2-CARBOXYLIC ACID (4-{6-AMINO-2-[3-(3,4-DICHLORO-BENZYL)-UREIDO]-HEXANOYLAMINO}-BENZYL)-CYCLOHEXYL-AMIDE], 10 to 50 µM.
Under `CC(C)(C)c1ccc(NC(=O)[C@H](Cc2ccc(CN)cc2)NC(=O)NCc2ccc(Cl)c(Cl)c2)cc1` [Compound 149, (S)-3-(4-AMINOMETHYL-PHENYL)-N-(4-TERT-BUTYL-PHENYL)-2-[3-(3,4-DICHLORO-BENZYL)-UREIDO]-PROPIONAMIDE] stands less than 10 µM.

The values are drawn from patent publication US20070021434A1, “NON-NUCLEOSIDE ANTI-HEPACIVIRUS AGENTS AND USES THEREOF” (Migenix Inc., priority 2005, published 2007).
